Tests used:
Rattus norvegicus [1] = experiment: Inhibitory effect of perorally administered compound (1.0 mg/kg) on gastric lesions induced by ethanol in 9 rats with observed lession index (88.1 mm) was determined; format: functional, Stomach
Rattus norvegicus [2] = experiment: Inhibitory effect of perorally administered compound (1.0 mg/kg) on gastric lesions induced by ethanol in 6 rats with observed lession index (76.4 mm) was determined; format: functional, Stomach
Rattus norvegicus [3] = experiment: Gastroprotective effect of compound was determined in rats at a concentration of 0.05 mg/kg po; format: functional
Rattus norvegicus [4] = experiment: Inhibitory effect of perorally administered compound (0.5 mg/kg) on gastric lesions induced by ethanol in 7 rats with observed lession index (17.1 mm) was determined; format: functional, Stomach
Rattus norvegicus [5] = experiment: Inhibitory effect of perorally administered compound (1.0 mg/kg) on gastric lesions induced by ethanol in 6 rats with observed lession index (8.5 mm) was determined; format: functional, Stomach
Rattus norvegicus [6] = experiment: Inhibitory effect of perorally administered compound (0.05 mg/kg) on gastric lesions induced by ethanol in 7 rats with observed lession index (120 mm) was determined; format: functional, Stomach
Rattus norvegicus [7] = experiment: Inhibitory effect of perorally administered compound (0.1 mg/kg) on gastric lesions induced by ethanol in 7 rats with observed lession index (90.3 mm) was determined; format: functional, Stomach
Rattus norvegicus [8] = experiment: Inhibitory effect of perorally administered compound (0.2 mg/kg) on gastric lesions induced by ethanol in 7 rats with observed lession index (62.7 mm) was determined; format: functional, Stomach
Rattus norvegicus [9] = experiment: Gastroprotective effect of compound was determined in rats at a concentration of 0.1 mg/kg po; format: functional
Rattus norvegicus [10] = experiment: Inhibitory effect of perorally administered compound (0.5 mg/kg) on gastric lesions induced by ethanol in 7 rats with observed lession index (4.3 mm) was determined; format: functional, Stomach
Rattus norvegicus [11] = experiment: Inhibitory effect of perorally administered compound (1.0 mg/kg) on gastric lesions induced by ethanol in 6 rats with observed lession index (0.9 mm) was determined; format: functional, Stomach
Rattus norvegicus [12] = experiment: Inhibitory effect of perorally administered compound (0.1 mg/kg) on gastric lesions induced by ethanol in 7 rats with observed lession index (95.0 mm) was determined; format: functional, Stomach
Rattus norvegicus [13] = experiment: Inhibitory effect of perorally administered compound (0.2 mg/kg) on gastric lesions induced by ethanol in 7 rats with observed lession index (50.0 mm) was determined; format: functional, Stomach
Rattus norvegicus [14] = experiment: Inhibitory effect of perorally administered compound (1.0 mg/kg) on gastric lesions induced by ethanol in 6 rats with observed lession index (103.7 mm) was determined; format: functional, Stomach
Rattus norvegicus [15] = experiment: Inhibitory effect of perorally administered compound (1.0 mg/kg) on gastric lesions induced by ethanol in 6 rats with observed lession index (91 mm) was determined; format: functional, Stomach
Rattus norvegicus [16] = experiment: Inhibitory effect of perorally administered compound (1.0 mg/kg) on gastric lesions induced by ethanol in 9 rats with observed lession index (100.5 mm) was determined; format: functional, Stomach
Rattus norvegicus [17] = experiment: Inhibitory effect of perorally administered compound (0.0125 mg/Kg) on gastric lesions induced by ethanol in 5 rats with observed lession index (129.6 mm) was determined; format: functional, Stomach
Rattus norvegicus [18] = experiment: Inhibitory effect of perorally administered compound (0.025 mg/kg) on gastric lesions induced by ethanol in 5 rats with observed lession index (84.8 mm) was determined; format: functional, Stomach
Rattus norvegicus [19] = experiment: Inhibitory effect of perorally administered compound (0.05 mg/kg) on gastric lesions induced by ethanol in 5 rats with observed lession index (48.8 mm) was determined; format: functional, Stomach
Rattus norvegicus [20] = experiment: Inhibitory effect of perorally administered compound (0.1 mg/kg) on gastric lesions induced by ethanol in 5 rats with observed lession index (29.1 mm) was determined; format: functional, Stomach
Rattus norvegicus [21] = experiment: Inhibitory effect of perorally administered compound (0.2 mg/kg) on gastric lesions induced by ethanol in 5 rats with observed lession index (12.6 mm) was determined; format: functional, Stomach
Rattus norvegicus [22] = experiment: Inhibitory effect of perorally administered compound (0.5 mg/kg) on gastric lesions induced by ethanol in 7 rats with observed lession index (0.0 mm) was determined; format: functional, Stomach
Rattus norvegicus [23] = experiment: Gastroprotective effect of compound was determined in rats at a peroral dose of 0.0125 mg/kg; format: functional; conditions: route oral
Rattus norvegicus [24] = experiment: Inhibitory effect of perorally administered compound (0.0005 mg/kg) on gastric lesions induced by ethanol in 10 rats with observed lession index (49.2 mm) was determined; format: functional, Stomach
Rattus norvegicus [25] = experiment: Inhibitory effect of perorally administered compound (0.001 mg/kg) on gastric lesions induced by ethanol in 9 rats with observed lession index (12.1 mm) was determined; format: functional, Stomach
Rattus norvegicus [26] = experiment: Inhibitory effect of perorally administered compound (1.0 mg/kg) on gastric lesions induced by ethanol in 5 rats with observed lession index (68.7 mm) was determined; format: functional, Stomach
Rattus norvegicus [27] = experiment: Inhibitory effect of perorally administered compound (0.2 mg/kg) on gastric lesions induced by ethanol in 5 rats with observed lession index (91.3 mm) was determined; format: functional, Stomach

For `CC(=O)OCC1=CCC2C(C)(C)CCC[C@]2(C)[C@H]1COC(C)=O` (some centres not stated), which Inhibition (Rattus norvegicus [1]) is on record?
Its Inhibition is 36.5%.

How did the Inhibition (Rattus norvegicus [2]) turn out when `CC1(C)CCC[C@@]2(C)C1CC=C(C(=O)O)[C@@H]2C(=O)O` (some centres not stated) was run?
The Inhibition was 47.7%.

How did the ED50 (Rattus norvegicus [3]) turn out when `CO[C@H]1O[C@@H](OC)[C@H]2C1=CCC1C(C)(C)CCC[C@@]12C` (some centres not stated) was run?
Its ED50 is 0.17 mg/kg.

What about the Inhibition (Rattus norvegicus [4]) of the same molecule?
Its Inhibition is 87.4%.

And the Inhibition (Rattus norvegicus [5])?
Its Inhibition is 93.7%.

And the Inhibition (Rattus norvegicus [6])?
The Inhibition was 11.5%.

And the Inhibition (Rattus norvegicus [7])?
Its Inhibition is 33.4%.

What about the Inhibition (Rattus norvegicus [8]) of the same molecule?
The Inhibition was 53.8%.

How did the ED50 (Rattus norvegicus [9]) turn out when `CO[C@@H]1O[C@@H](OC)[C@H]2C1=CCC1C(C)(C)CCC[C@@]12C` (some centres not stated) was run?
Its ED50 is 0.15 mg/kg.

What about the Inhibition (Rattus norvegicus [10]) of the same molecule?
Its Inhibition is 96.7%.

What about the Inhibition (Rattus norvegicus [11]) of the same molecule?
The Inhibition was 99.3%.

What about the Inhibition (Rattus norvegicus [12]) of the same molecule?
Its Inhibition is 28%.

What about the Inhibition (Rattus norvegicus [13]) of the same molecule?
The Inhibition was 62.1%.

`CC1(C)CCC[C@@]2(C)C1CC=C1COC[C@@H]12` (some centres not stated) was tested. Which Inhibition (Rattus norvegicus [14]) did it give?
The Inhibition was 29.1%.

How did the Inhibition (Rattus norvegicus [15]) turn out when `COC(=O)C1=CCC2C(C)(C)CCC[C@]2(C)[C@H]1C(=O)OC` (some centres not stated) was run?
The Inhibition was 37.8%.

How did the Inhibition (Rattus norvegicus [16]) turn out when `CC1(C)CCC[C@@]2(C)C1CC=C(CO)[C@@H]2CO` (some centres not stated) was run?
Its Inhibition is 27.6%.

What does the source list for `CC1(C)CCC[C@]2(C)[C@@H](C=O)C(C=O)=CC[C@@H]12` [POLYGODIAL]?
Inhibition (Rattus norvegicus [17]): 23.5%; Inhibition (Rattus norvegicus [18]): 50%; Inhibition (Rattus norvegicus [19]): 71.2%; Inhibition (Rattus norvegicus [20]): 82.8%; Inhibition (Rattus norvegicus [21]): 92.6%; Inhibition (Rattus norvegicus [22]): 100%; ED50 (Rattus norvegicus [23]): 0.028 mg/kg

`CCCCC(C)(C)[C@H](O)/C=C/C1[C@H](O)CC(=O)[C@@H]1C/C=C\CCCC(=O)O` (some centres not stated) was tested. Which Inhibition (Rattus norvegicus [24]) did it give?
Its Inhibition is 64.5%.

And the Inhibition (Rattus norvegicus [25])?
The Inhibition was 91.3%.

Which Inhibition (Rattus norvegicus [26]) does the source give for `CO[C@@H]1OCC2=CCC3C(C)(C)CCC[C@]3(C)[C@H]21` (some centres not stated) here?
Its Inhibition is 54.6%.

What about the Inhibition (Rattus norvegicus [27]) of the same molecule?
The Inhibition was 39.6%.
